Test results as given in patent US20210032674A1, “METHOD FOR DETERMINING MICROORGANISM CONCENTRATION” (priority 2018, published 2021).
Values after ≈ are worked out from the molar mass of the structure shown.

Test system: clinical isolate of Klebsiella pneumoniae
Assay: Antibiotic susceptibility test (AST), MIC calling by automated microscopy imaging of microbial biomass in a 336-well AST-disc
Type: cell-based
Settings: Klebsiella pneumoniae, 5.5 h, replicate #1; K. pneumoniae recovered from spiked positive blood culture flask, adjusted to 5x10^5 CFU/ml in CAMBH, 35° C., up to 5.5 hours total AST time
Experimental: Clinical isolates grown on agar plate were individually suspended in PBS and adjusted to 0.5 McFarland. A 1:100 dilution of this was added together with 9 ml of blood from a healthy donor to a blood culture flask (BD Bactec Plus Aerob) and incubated in a blood culture cabinet overnight. In the morning, after the BCF had turned positive a 500 μl aliquot of the positive BCF were used for the subsequent analysis.
The value of the concentration determination was compared to a pre-determined standard curve and the concentration of microorganisms in the recovered suspension was automatically adjusted to the desired concentration (5×10^5 CFU/ml). For this experiment an aliquot of the concentration adjusted bacteria were plated on an agar plate to determine viable cell count to provide a control measure for the process.
The concentration adjusted sample in CAMBH was added using an automated pipette via central access ports to a 336-well AST-disc pre-filled with dried antibiotics in various concentrations.
Each well contain 20 μl of sample and is incubated at 35° C. An initial reading was taken after 30 minutes (reading 0). Subsequent readings (readings 1-6) were taken every hour up to 5.5 hours total AST time by imaging by automated microscopy.
MIC antibiotic concentrations (measured in mg/I) were determined for a range of antibiotics. Each antibiotic were present in triplicates in the AST-consumable in this experiment.

Row | Compound | MIC
1 | NCC[C@H](O)C(=O)N[C@@H]1C[C@H](N)[C@@H](O[C@H]2O[C@H](CN)[C@@H](O)[C@H](O)[C@H]2O)[C@H](O)[C@H]1O[C@H]1O[C@H](CO)[C@@H](O)[C@H](N)[C@H]1O [Amikacin] | 1 µg/mL (≈ 1.71 µM)
2 | CO/N=C(\C(=O)N[C@@H]1C(=O)N2C(C(=O)O)=C(COC(C)=O)CS[C@H]12)c1csc(N)n1 [Cefotaxime] | > 8 µg/mL
3 | CO[C@@]1(NC(=O)Cc2cccs2)C(=O)N2C(C(=O)O)=C(COC(N)=O)CS[C@@H]21 [Cefoxitine] | 2 µg/mL (≈ 4.68 µM)
4 | CC(C)(O/N=C(\C(=O)N[C@@H]1C(=O)N2C(C(=O)[O-])=C(C[n+]3ccccc3)CS[C@H]12)c1csc(N)n1)C(=O)O [Ceftazidime] | ≤ 0.125 µg/mL
5 | CO/N=C(\C(=O)N[C@@H]1C(=O)N2C(C(=O)O)=C(CSc3nc(=O)c(=O)[nH]n3C)CS[C@H]12)c1csc(N)n1 [Ceftriaxone] | > 8 µg/mL
6 | C[C@@H](O)[C@H]1C(=O)N2C(C(=O)O)=C(S[C@@H]3CN[C@H](C(=O)Nc4cccc(C(=O)O)c4)C3)[C@H](C)[C@H]12 [Ertapenem] | ≤ 0.0156 µg/mL
7 | C[C@H]1COc2c(N3CCN(C)CC3)c(F)cc3c(=O)c(C(=O)O)cn1c23 [Levofloxacin] | 0.5 µg/mL (≈ 1.38 µM)
8 | C[C@@H](O)[C@H]1C(=O)N2C(C(=O)O)=C(S[C@@H]3CN[C@H](C(=O)N(C)C)C3)[C@H](C)[C@H]12 [Meropenem] | ≤ 0.0625 µg/mL
9 | NC[C@H]1O[C@H](O[C@H]2[C@H](O)[C@@H](O[C@H]3O[C@H](CO)[C@@H](O)[C@H](N)[C@H]3O)[C@H](N)C[C@@H]2N)[C@H](N)C[C@@H]1O [Tobramycin] | 2 µg/mL (≈ 4.28 µM)

Same assay, conditions: Klebsiella pneumoniae, 5.5 h, replicate #2; K. pneumoniae recovered from spiked positive blood culture flask, adjusted to 5x10^5 CFU/ml in CAMBH, 35° C., up to 5.5 hours total AST time

Row | Compound | MIC
10 | NCC[C@H](O)C(=O)N[C@@H]1C[C@H](N)[C@@H](O[C@H]2O[C@H](CN)[C@@H](O)[C@H](O)[C@H]2O)[C@H](O)[C@H]1O[C@H]1O[C@H](CO)[C@@H](O)[C@H](N)[C@H]1O [Amikacin] | 2 µg/mL (≈ 3.42 µM)
11 | CO/N=C(\C(=O)N[C@@H]1C(=O)N2C(C(=O)O)=C(COC(C)=O)CS[C@H]12)c1csc(N)n1 [Cefotaxime] | > 8 µg/mL
12 | CO[C@@]1(NC(=O)Cc2cccs2)C(=O)N2C(C(=O)O)=C(COC(N)=O)CS[C@@H]21 [Cefoxitine] | 4 µg/mL (≈ 9.36 µM)
13 | CC(C)(O/N=C(\C(=O)N[C@@H]1C(=O)N2C(C(=O)[O-])=C(C[n+]3ccccc3)CS[C@H]12)c1csc(N)n1)C(=O)O [Ceftazidime] | ≤ 0.125 µg/mL
14 | CO/N=C(\C(=O)N[C@@H]1C(=O)N2C(C(=O)O)=C(CSc3nc(=O)c(=O)[nH]n3C)CS[C@H]12)c1csc(N)n1 [Ceftriaxone] | > 8 µg/mL
15 | C[C@@H](O)[C@H]1C(=O)N2C(C(=O)O)=C(S[C@@H]3CN[C@H](C(=O)Nc4cccc(C(=O)O)c4)C3)[C@H](C)[C@H]12 [Ertapenem] | 0.0312 µg/mL (≈ 0.0657 µM)
16 | C[C@H]1COc2c(N3CCN(C)CC3)c(F)cc3c(=O)c(C(=O)O)cn1c23 [Levofloxacin] | 0.5 µg/mL (≈ 1.38 µM)
17 | C[C@@H](O)[C@H]1C(=O)N2C(C(=O)O)=C(S[C@@H]3CN[C@H](C(=O)N(C)C)C3)[C@H](C)[C@H]12 [Meropenem] | ≤ 0.0625 µg/mL
18 | NC[C@H]1O[C@H](O[C@H]2[C@H](O)[C@@H](O[C@H]3O[C@H](CO)[C@@H](O)[C@H](N)[C@H]3O)[C@H](N)C[C@@H]2N)[C@H](N)C[C@@H]1O [Tobramycin] | 2 µg/mL (≈ 4.28 µM)

Same assay, conditions: Klebsiella pneumoniae, 5.5 h, replicate #3; K. pneumoniae recovered from spiked positive blood culture flask, adjusted to 5x10^5 CFU/ml in CAMBH, 35° C., up to 5.5 hours total AST time

Row | Compound | MIC
19 | NCC[C@H](O)C(=O)N[C@@H]1C[C@H](N)[C@@H](O[C@H]2O[C@H](CN)[C@@H](O)[C@H](O)[C@H]2O)[C@H](O)[C@H]1O[C@H]1O[C@H](CO)[C@@H](O)[C@H](N)[C@H]1O [Amikacin] | 1 µg/mL (≈ 1.71 µM)
20 | CO/N=C(\C(=O)N[C@@H]1C(=O)N2C(C(=O)O)=C(COC(C)=O)CS[C@H]12)c1csc(N)n1 [Cefotaxime] | > 8 µg/mL
21 | CO[C@@]1(NC(=O)Cc2cccs2)C(=O)N2C(C(=O)O)=C(COC(N)=O)CS[C@@H]21 [Cefoxitine] | 2 µg/mL (≈ 4.68 µM)
22 | CC(C)(O/N=C(\C(=O)N[C@@H]1C(=O)N2C(C(=O)[O-])=C(C[n+]3ccccc3)CS[C@H]12)c1csc(N)n1)C(=O)O [Ceftazidime] | ≤ 0.125 µg/mL
23 | CO/N=C(\C(=O)N[C@@H]1C(=O)N2C(C(=O)O)=C(CSc3nc(=O)c(=O)[nH]n3C)CS[C@H]12)c1csc(N)n1 [Ceftriaxone] | > 8 µg/mL
24 | C[C@@H](O)[C@H]1C(=O)N2C(C(=O)O)=C(S[C@@H]3CN[C@H](C(=O)Nc4cccc(C(=O)O)c4)C3)[C@H](C)[C@H]12 [Ertapenem] | ≤ 0.0156 µg/mL
25 | C[C@H]1COc2c(N3CCN(C)CC3)c(F)cc3c(=O)c(C(=O)O)cn1c23 [Levofloxacin] | 0.5 µg/mL (≈ 1.38 µM)
26 | C[C@@H](O)[C@H]1C(=O)N2C(C(=O)O)=C(S[C@@H]3CN[C@H](C(=O)N(C)C)C3)[C@H](C)[C@H]12 [Meropenem] | ≤ 0.0625 µg/mL
27 | NC[C@H]1O[C@H](O[C@H]2[C@H](O)[C@@H](O[C@H]3O[C@H](CO)[C@@H](O)[C@H](N)[C@H]3O)[C@H](N)C[C@@H]2N)[C@H](N)C[C@@H]1O [Tobramycin] | 2 µg/mL (≈ 4.28 µM)

Same assay, conditions: replicate #1; K. pneumoniae recovered from spiked positive blood culture flask, adjusted to 5x10^5 CFU/ml in CAMBH, 35° C., up to 5.5 hours total AST time

Row | Compound | MIC values
28 | C[C@@H](O)[C@H]1C(=O)N2C(C(=O)O)=C(SCCN=CN)C[C@H]12 [Imipinem] | <=0.5 mg/I
29 | CN(C)c1cc(NC(=O)CNC(C)(C)C)c(O)c2c1C[C@H]1C[C@H]3[C@H](N(C)C)C(O)=C(C(N)=O)C(=O)[C@@]3(O)C(O)=C1C2=O [Tigecyclin] | 0.5 mg/I
30 | Amoxicillin/clavulanic acid | 8 mg/I
31 | Ceftolozane-tazobactam | 0.25 mg/I
32 | Colistin | 0.5 mg/I
33 | Gentamicin | 0.5 mg/I
34 | Piperacillin/Tazobactam | 4 mg/I
35 | Trimethoprim/Sulfamethoxasole | >16 mg/I
36 | ceftazidime-avibactam | 16 mg/I

Same assay, conditions: replicate #2; K. pneumoniae recovered from spiked positive blood culture flask, adjusted to 5x10^5 CFU/ml in CAMBH, 35° C., up to 5.5 hours total AST time

Row | Compound | MIC values
37 | C[C@@H](O)[C@H]1C(=O)N2C(C(=O)O)=C(SCCN=CN)C[C@H]12 [Imipinem] | <=0.5 mg/I
38 | CN(C)c1cc(NC(=O)CNC(C)(C)C)c(O)c2c1C[C@H]1C[C@H]3[C@H](N(C)C)C(O)=C(C(N)=O)C(=O)[C@@]3(O)C(O)=C1C2=O [Tigecyclin] | 0.5 mg/I
39 | Amoxicillin/clavulanic acid | 16 mg/I
40 | Ceftolozane-tazobactam | 0.25 mg/I
41 | Colistin | 1 mg/I
42 | Gentamicin | 0.5 mg/I
43 | Piperacillin/Tazobactam | 4 mg/I
44 | Trimethoprim/Sulfamethoxasole | >16 mg/I
45 | ceftazidime-avibactam | 32 mg/I

Same assay, conditions: replicate #3; K. pneumoniae recovered from spiked positive blood culture flask, adjusted to 5x10^5 CFU/ml in CAMBH, 35° C., up to 5.5 hours total AST time

Row | Compound | MIC values
46 | C[C@@H](O)[C@H]1C(=O)N2C(C(=O)O)=C(SCCN=CN)C[C@H]12 [Imipinem] | <=0.5 mg/I
47 | CN(C)c1cc(NC(=O)CNC(C)(C)C)c(O)c2c1C[C@H]1C[C@H]3[C@H](N(C)C)C(O)=C(C(N)=O)C(=O)[C@@]3(O)C(O)=C1C2=O [Tigecyclin] | 0.5 mg/I
48 | Amoxicillin/clavulanic acid | 16 mg/I
49 | Ceftolozane-tazobactam | 0.25 mg/I
50 | Colistin | 1 mg/I
51 | Gentamicin | 0.5 mg/I
52 | Piperacillin/Tazobactam | 4 mg/I
53 | Trimethoprim/Sulfamethoxasole | >16 mg/I
54 | ceftazidime-avibactam | 32 mg/I
